One experiment concerns Influenza A virus. As to the kind of experiment: Antiviral activity against Influenza A virus A2/Taiwan. It is filed as functional, organism-based.
The next experiment has as its system Human alphaherpesvirus 2. As to the kind of experiment: Antiviral activity against Human herpesvirus 2. Type of experiment: functional, organism-based.

The source made the active and inactive calls. The rule behind the calls is not given here.

Take `NC1C2C3CC4C5CC(C42)C1(c1ccccc1)C53` (racemic): the result in the experiment with Influenza A virus and in the experiment on Human alphaherpesvirus 2 was Active.

For the origin of these results see ChEMBL document CHEMBL3045192, “Medicinal chemistry of polycyclic cage compounds in drug discovery research” (Med Chem Res, 2008).
